{
  "source": "paper PMC4291220",
  "about": "(PLoS ONE, 2015)",
  "key": {"CLIC4 [1]": {"biological_target": "T1, CLIC4 (Homo sapiens, UniProt Q9Y696)", "T1 sequence (Q9Y696 2-253)": "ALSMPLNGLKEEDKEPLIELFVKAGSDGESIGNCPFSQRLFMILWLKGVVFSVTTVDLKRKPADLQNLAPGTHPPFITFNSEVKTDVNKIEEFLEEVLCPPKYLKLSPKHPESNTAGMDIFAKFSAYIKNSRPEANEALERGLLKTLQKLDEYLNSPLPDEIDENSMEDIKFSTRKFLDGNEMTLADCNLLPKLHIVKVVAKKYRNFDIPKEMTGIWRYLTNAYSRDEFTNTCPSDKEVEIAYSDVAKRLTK", "assay": "DHAR assay, GR-coupled NADPH oxidation at A340", "format": "biochemical", "conditions": "5 uM protein, 1 mM DHA, 2 mM GSH, pH 7.5, 30 °C"}, "O=[Se](O)O": {"tested_on": "O=[Se](O)O", "assay": "purified protein", "conditions": "50 uM GSH, 200 uM NADPH, 50 nM GR, pH 7.5, 20 °C, reduced monomer, selenite 0-16 uM"}, "CLIC1 [2]": {"biological_target": "T2, CLIC1 (Homo sapiens, UniProt O00299)", "assay": "HEDS assay, GR-coupled", "format": "biochemical", "set-up": "full length, His-tag (pET28a) cut with thrombin; E. coli BL21(DE3); reduced monomer by SEC", "conditions": "5 uM CLIC1, 1 mM HEDS, 1 mM GSH, pH 7, 37 °C; mode and site not determined"}, "CLIC1 [3]": {"biological_target": "T2, CLIC1", "conditions": "1 mM GSH, 250 uM NADPH, 50 nM GR, pH 7, 37 °C; reduced monomer; HEDS range printed as 0-6 mM, so printed unit uM is doubtful"}, "CLIC1 [4]": {"biological_target": "CLIC1 (Homo sapiens, UniProt O00299, C59A)", "conditions": "1 mM GSH, 250 uM NADPH, 50 nM GR, pH 7, 37 °C; HEDS range printed as 0-6 mM, so printed unit uM is doubtful"}, "CLIC4 [5]": {"biological_target": "T1, CLIC4", "assay": "HEDS assay, GR-coupled NADPH oxidation at A340", "format": "biochemical", "conditions": "5 uM protein, 1 mM HEDS, 1 mM GSH, pH 7, 37 °C"}, "CLIC2": {"biological_target": "T3, CLIC2 (Homo sapiens, UniProt O15247)", "T3 construct": "full length, N-terminal GST tag (pGEX-2T) cut with thrombin; E. coli BL21(DE3)", "T3 sequence (O15247 whole entry)": "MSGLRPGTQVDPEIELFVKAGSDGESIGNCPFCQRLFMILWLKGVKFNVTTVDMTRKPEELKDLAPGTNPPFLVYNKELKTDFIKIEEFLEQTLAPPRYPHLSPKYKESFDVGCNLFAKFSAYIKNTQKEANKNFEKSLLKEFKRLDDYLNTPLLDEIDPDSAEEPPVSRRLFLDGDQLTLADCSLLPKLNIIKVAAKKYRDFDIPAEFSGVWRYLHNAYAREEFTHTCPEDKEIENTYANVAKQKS", "assay": "HEDS assay, GR-coupled NADPH oxidation at A340", "format": "biochemical", "conditions": "5 uM protein, 1 mM HEDS, 1 mM GSH, pH 7, 37 °C"}},
  "data": [
    {"molecule": "O=C1O[C@H]([C@@H](O)CO)C(=O)C1=O", "note": "[dehydroascorbic acid]", "values": [
      {"measurement": "DHAR assay, GR-coupled NADPH oxidation at A340", "setting": "CLIC4 [1]", "result": "NADPH consumption increased in the presence of CLIC1 or CLIC4"}
    ]},
    {"molecule": "CLIC1 (Homo sapiens)", "values": [
      {"measurement": "Km", "setting": "O=[Se](O)O", "result": "4.81 ± 3.00", "unit": "µM"}
    ]},
    {"molecule": "O=C(O)c1c2ccccc2cc2ccccc12", "note": "[A9C]", "values": [
      {"measurement": "complete inhibition at 10 uM", "setting": "CLIC1 [2]", "result": "both IAA-94 and A9C completely blocked the enzymatic activity of CLIC1"}
    ]},
    {"molecule": "OCCSSCCO", "note": "[2-hydroxyethyl disulfide]", "values": [
      {"measurement": "Km", "setting": "CLIC1 [3]", "result": "1.28 ± 0.65", "unit": "µM"},
      {"measurement": "Km", "setting": "CLIC1 [4]", "result": "1.25 ± 0.65", "unit": "µM"},
      {"measurement": "HEDS assay, GR-coupled NADPH oxidation at A340", "setting": "CLIC4 [5]", "result": "all three proteins reduced the HEDS substrate when coupled with glutathione (GSH)"},
      {"measurement": "HEDS assay, GR-coupled NADPH oxidation at A340", "setting": "CLIC2", "result": "all three proteins reduced the HEDS substrate when coupled with glutathione (GSH)"}
    ]},
    {"molecule": "CC1(C2CCCC2)Cc2cc(OCC(=O)O)c(Cl)c(Cl)c2C1=O", "note": "(centres unmarked) [IAA-94]", "values": [
      {"measurement": "complete inhibition at 10 uM", "setting": "CLIC1 [2]", "result": "both IAA-94 and A9C completely blocked the enzymatic activity of CLIC1"}
    ]}
  ]
}
